# Patent publication US10889553B2, “Asymmetric triazole benzamide derivatives and the compositions and methods of treatment regarding the same” (NysnoBio Ireland DAC, priority 2017, dated 2021)
# How the values were obtained:
# NMDA = assay: Selectivity screen, radioligand displacement; format: binding; details: Compound 42 at 10 μM
# Source text: (§1) If the % inhibition is less than 50%, the test compounds is consider to have no effect.
# beta 1 (h) = beta 1 (h) (Homo sapiens, UniProt P08588); assay: Selectivity screen, radioligand displacement; format: binding; details: read-out: % Inhib beta 1 (h)
# Source text: as §1
# mu (MOP) (h) = mu (MOP) (h) (Homo sapiens, UniProt P35372); assay: Selectivity screen, radioligand displacement; format: binding; details: read-out: % Inhib mu (MOP) (h)
# Source text: as §1
# alpha 2A (h) = alpha 2A (h) (Homo sapiens, UniProt P08913); assay: Selectivity screen, radioligand displacement; format: binding; details: read-out: % Inhib alpha 2A (h)
# Source text: as §1
# Lck kinase (h) = Lck kinase (h) (Homo sapiens, UniProt P06239); assay: Selectivity screen, radioligand displacement; format: binding; details: read-out: % Inhib Lck kinase (h)
# Source text: as §1
# acetylcholinesterase (h) = acetylcholinesterase (h) (Homo sapiens, UniProt P22303); assay: Selectivity screen, radioligand displacement; format: binding; details: read-out: % Inhib acetylcholinesterase (h)
# Source text: as §1
# beta 2(h) = beta 2(h) (Homo sapiens, UniProt P07550); assay: Selectivity screen, radioligand displacement; format: binding; details: read-out: % Inhib beta 2(h)
# Source text: as §1
# M3 (h) = M3 (h) (Homo sapiens, UniProt P20309); assay: Selectivity screen, radioligand displacement; format: binding; details: read-out: % Inhib M3 (h)
# Source text: as §1
# D1 (h) = D1 (h) (Homo sapiens, UniProt P21728); assay: Selectivity screen, radioligand displacement; format: binding
# Source text: as §1
# KV channel = assay: Selectivity screen, radioligand displacement; format: binding; details: Compound 42 at 10 μM
# Source text: as §1
# 5-HT1B = 5-HT1B (Rattus norvegicus, UniProt P28564); assay: Selectivity screen, radioligand displacement; format: binding; details: read-out: % Inhib 5-HT1B
# Source text: as §1
# M2 (h) = M2 (h) (Homo sapiens, UniProt P08172); assay: Selectivity screen, radioligand displacement; format: binding; details: read-out: % Inhib M2 (h)
# Source text: as §1
# 5-HT3 (h) = 5-HT3 (h) (Homo sapiens, UniProt P46098); assay: Selectivity screen, radioligand displacement; format: binding; details: read-out: % Inhib 5-HT3 (h)
# Source text: as §1
# kappa (KOP) = kappa (KOP) (Rattus norvegicus, UniProt P34975); assay: Selectivity screen, radioligand displacement; format: binding; details: read-out: % Inhib kappa (KOP)
# Source text: as §1
# 5-HT transporter (h) = 5-HT transporter (h) (Homo sapiens, UniProt P31645); assay: Selectivity screen, radioligand displacement; format: binding; details: read-out: % Inhib 5-HT transporter (h)
# Source text: as §1
# 5-HT2B (h) = 5-HT2B (h) (Homo sapiens, UniProt P41595); assay: Selectivity screen, radioligand displacement; format: binding; details: read-out: % Inhib 5-HT2B (h)
# Source text: as §1
# [1] = target: N neuronal alpha 4beta 2 (h) (Homo sapiens, UniProt P17787+P43681); assay: Selectivity screen, radioligand displacement; format: binding; details: read-out: % Inhib N neuronal alpha 4beta 2 (h)
# Source text: as §1
# V1a (h) = V1a (h) (Homo sapiens, UniProt P37288); assay: Selectivity screen, radioligand displacement; format: binding; details: read-out: % Inhib V1a (h)
# Source text: as §1
# ETA (h) = ETA (h) (Homo sapiens, UniProt P25101); assay: Selectivity screen, radioligand displacement; format: binding; details: read-out: % Inhib ETA (h)
# Source text: as §1
# 5-HT1A (h) = 5-HT1A (h) (Homo sapiens, UniProt P08908); assay: Selectivity screen, radioligand displacement; format: binding; details: read-out: % Inhib 5-HT1A (h)
# Source text: as §1
# CB2 (h) = CB2 (h) (Homo sapiens, UniProt P34972); assay: Selectivity screen, radioligand displacement; format: binding; details: read-out: % Inhib CB2 (h)
# Source text: as §1
# dopamine transporter (h) = dopamine transporter (h) (Homo sapiens, UniProt Q01959); assay: Selectivity screen, radioligand displacement; format: binding; details: read-out: % Inhib dopamine transporter (h)
# Source text: as §1
# M1 (h) = M1 (h) (Homo sapiens, UniProt P11229); assay: Selectivity screen, radioligand displacement; format: binding
# Source text: as §1
# CCK1 (CCKA) (h) = CCK1 (CCKA) (h) (Homo sapiens, UniProt P32238); assay: Selectivity screen, radioligand displacement; format: binding; details: read-out: % Inhib CCK1 (CCKA) (h)
# Source text: as §1
# H1 (h) = H1 (h) (Homo sapiens, UniProt P35367); assay: Selectivity screen, radioligand displacement; format: binding
# Source text: as §1
# [2] = test system: Ca2+ channel (L, dihydropyridine); assay: Selectivity screen, radioligand displacement; format: binding; details: Compound 42 at 10 μM
# Source text: as §1
# [3] = target: norepinephrine transporter (h) (Homo sapiens, UniProt P23975); assay: Selectivity screen, radioligand displacement; format: binding; details: read-out: % Inhib norepinephrine transporter (h)
# Source text: as §1
# hERG potassium channel = hERG potassium channel (Homo sapiens, UniProt Q12809); assay: Selectivity screen, radioligand displacement; format: binding; details: read-out: % Inhib Potassium Channel hERG (human)
# Source text: as §1
# 5-HT2A (h) = 5-HT2A (h) (Homo sapiens, UniProt P28223); assay: Selectivity screen, radioligand displacement; format: binding; details: read-out: % Inhib 5-HT2A (h)
# Source text: as §1
# PDE3A (h) = PDE3A (h) (Homo sapiens, UniProt Q14432); assay: Selectivity screen, radioligand displacement; format: binding; details: read-out: % Inhib PDE3A (h)
# Source text: as §1
# A2A(h) = A2A(h) (Homo sapiens, UniProt P29274); assay: Selectivity screen, radioligand displacement; format: binding; details: read-out: % Inhib A2A(h)
# Source text: as §1
# PDE4D2 (h) = PDE4D2 (h) (Homo sapiens, UniProt Q08499); assay: Selectivity screen, radioligand displacement; format: binding; details: read-out: % Inhib PDE4D2 (h)
# Source text: as §1
# MAO-A = MAO-A (Rattus norvegicus, UniProt P21396); assay: Selectivity screen, radioligand displacement; format: binding; details: read-out: % Inhib MAO-A
# Source text: as §1
# COX1(h) = COX1(h) (Homo sapiens, UniProt P23219); assay: Selectivity screen, radioligand displacement; format: binding; details: read-out: % Inhib COX1(h)
# Source text: as §1
# MAPK3 (ERK1) = MAPK3 (ERK1) (Homo sapiens, UniProt P27361); assay: Kinase panel assay; format: biochemical
# Source text: Compound 42 was also screened in a kinase panel assay.
# Sequence of acetylcholinesterase (h) (P22303 32-614): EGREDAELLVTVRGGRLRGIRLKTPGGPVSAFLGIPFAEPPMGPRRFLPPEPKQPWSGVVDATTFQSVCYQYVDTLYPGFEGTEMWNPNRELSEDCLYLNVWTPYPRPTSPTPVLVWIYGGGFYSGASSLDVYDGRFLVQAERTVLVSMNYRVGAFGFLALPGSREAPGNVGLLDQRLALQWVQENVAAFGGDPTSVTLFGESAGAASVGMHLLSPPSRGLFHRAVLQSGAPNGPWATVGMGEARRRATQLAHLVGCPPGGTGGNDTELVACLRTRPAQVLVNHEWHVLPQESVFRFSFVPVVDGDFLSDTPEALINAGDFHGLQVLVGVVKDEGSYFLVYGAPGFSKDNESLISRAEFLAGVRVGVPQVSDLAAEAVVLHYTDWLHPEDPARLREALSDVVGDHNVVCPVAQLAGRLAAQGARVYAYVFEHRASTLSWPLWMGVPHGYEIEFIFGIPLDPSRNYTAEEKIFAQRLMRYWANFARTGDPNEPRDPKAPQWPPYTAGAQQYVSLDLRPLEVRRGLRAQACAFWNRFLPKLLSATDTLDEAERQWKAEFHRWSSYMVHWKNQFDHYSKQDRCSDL
# Sequence of beta 1 (h) (P08588 whole entry): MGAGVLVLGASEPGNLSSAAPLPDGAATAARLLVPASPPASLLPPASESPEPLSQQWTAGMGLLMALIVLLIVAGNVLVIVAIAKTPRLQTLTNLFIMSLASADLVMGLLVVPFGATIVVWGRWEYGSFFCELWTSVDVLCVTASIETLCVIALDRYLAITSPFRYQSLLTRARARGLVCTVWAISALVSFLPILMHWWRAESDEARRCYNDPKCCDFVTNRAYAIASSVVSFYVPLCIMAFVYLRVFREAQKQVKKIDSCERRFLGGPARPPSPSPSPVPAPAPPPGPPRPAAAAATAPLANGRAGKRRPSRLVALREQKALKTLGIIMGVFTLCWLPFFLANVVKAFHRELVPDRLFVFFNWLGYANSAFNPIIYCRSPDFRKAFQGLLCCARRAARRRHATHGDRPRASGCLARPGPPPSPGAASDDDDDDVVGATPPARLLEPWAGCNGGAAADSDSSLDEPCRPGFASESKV
# Sequence of 5-HT3 (h) (P46098 24-478): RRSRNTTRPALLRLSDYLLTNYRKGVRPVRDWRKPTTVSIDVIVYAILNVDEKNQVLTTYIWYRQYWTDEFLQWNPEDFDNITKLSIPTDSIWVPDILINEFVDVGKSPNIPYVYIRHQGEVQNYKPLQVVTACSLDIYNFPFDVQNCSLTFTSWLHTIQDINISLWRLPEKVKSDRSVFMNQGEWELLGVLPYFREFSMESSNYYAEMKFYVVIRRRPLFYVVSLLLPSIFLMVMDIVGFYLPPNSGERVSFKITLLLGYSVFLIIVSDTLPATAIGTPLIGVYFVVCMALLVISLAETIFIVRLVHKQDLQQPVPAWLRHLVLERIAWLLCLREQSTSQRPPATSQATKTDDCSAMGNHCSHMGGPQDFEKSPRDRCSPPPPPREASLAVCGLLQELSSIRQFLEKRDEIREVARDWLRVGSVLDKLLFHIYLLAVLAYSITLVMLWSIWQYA
# Sequence of H1 (h) (P35367 whole entry): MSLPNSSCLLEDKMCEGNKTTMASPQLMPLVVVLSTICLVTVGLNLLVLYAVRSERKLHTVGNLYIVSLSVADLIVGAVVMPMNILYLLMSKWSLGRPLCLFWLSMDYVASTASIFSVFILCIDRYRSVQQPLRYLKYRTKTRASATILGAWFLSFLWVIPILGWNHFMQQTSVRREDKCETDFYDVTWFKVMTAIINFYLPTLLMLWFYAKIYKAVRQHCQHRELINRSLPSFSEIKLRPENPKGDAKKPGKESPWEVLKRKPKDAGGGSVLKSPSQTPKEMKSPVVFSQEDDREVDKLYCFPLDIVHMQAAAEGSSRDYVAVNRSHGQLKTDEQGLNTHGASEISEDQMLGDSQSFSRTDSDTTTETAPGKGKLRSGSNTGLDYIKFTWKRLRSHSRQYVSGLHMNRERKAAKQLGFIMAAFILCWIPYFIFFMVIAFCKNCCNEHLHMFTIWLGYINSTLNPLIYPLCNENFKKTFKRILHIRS
# Sequence of 5-HT1A (h) (P08908 whole entry): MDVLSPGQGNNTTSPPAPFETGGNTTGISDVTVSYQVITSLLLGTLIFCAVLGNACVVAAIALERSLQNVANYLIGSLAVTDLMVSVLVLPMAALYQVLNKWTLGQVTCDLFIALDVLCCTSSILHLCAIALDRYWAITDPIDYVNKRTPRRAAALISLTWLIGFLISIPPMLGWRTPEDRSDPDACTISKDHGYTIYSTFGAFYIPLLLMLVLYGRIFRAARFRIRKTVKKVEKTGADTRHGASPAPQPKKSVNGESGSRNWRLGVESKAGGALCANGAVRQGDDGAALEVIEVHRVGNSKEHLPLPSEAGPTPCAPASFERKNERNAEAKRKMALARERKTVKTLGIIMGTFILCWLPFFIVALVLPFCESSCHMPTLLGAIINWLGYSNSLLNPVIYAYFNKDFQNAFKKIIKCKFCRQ
# Sequence of 5-HT2B (h) (P41595 whole entry): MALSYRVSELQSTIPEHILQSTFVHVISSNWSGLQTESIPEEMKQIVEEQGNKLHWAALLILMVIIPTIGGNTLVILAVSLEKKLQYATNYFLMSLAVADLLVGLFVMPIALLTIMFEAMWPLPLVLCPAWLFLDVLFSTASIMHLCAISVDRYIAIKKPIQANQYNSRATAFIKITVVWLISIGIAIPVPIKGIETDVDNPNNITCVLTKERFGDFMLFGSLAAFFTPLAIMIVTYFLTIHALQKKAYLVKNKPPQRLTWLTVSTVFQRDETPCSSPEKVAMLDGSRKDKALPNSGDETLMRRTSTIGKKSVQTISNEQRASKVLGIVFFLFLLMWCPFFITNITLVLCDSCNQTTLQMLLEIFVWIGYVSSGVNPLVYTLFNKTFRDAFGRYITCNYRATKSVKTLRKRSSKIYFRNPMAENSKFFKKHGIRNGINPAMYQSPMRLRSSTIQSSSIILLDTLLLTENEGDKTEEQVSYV
# Sequence of 5-HT transporter (h) (P31645 whole entry): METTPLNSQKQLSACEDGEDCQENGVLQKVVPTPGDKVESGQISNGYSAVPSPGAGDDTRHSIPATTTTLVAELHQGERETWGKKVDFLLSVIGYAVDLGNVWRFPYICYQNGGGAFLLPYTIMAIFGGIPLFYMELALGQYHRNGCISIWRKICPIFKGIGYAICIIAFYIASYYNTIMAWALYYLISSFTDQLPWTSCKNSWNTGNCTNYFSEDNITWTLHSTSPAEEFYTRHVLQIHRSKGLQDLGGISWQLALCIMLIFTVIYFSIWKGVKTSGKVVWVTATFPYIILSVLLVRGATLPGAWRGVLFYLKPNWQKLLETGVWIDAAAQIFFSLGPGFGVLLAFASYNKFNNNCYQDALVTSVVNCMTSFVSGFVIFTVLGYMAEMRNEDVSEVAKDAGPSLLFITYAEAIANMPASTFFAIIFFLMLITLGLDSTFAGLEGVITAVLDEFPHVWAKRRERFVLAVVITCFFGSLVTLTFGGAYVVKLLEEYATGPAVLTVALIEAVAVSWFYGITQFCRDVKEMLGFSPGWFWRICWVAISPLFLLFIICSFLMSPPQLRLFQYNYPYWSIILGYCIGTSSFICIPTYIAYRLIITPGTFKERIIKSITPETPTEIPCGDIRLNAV
# Sequence of A2A(h) (P29274 whole entry): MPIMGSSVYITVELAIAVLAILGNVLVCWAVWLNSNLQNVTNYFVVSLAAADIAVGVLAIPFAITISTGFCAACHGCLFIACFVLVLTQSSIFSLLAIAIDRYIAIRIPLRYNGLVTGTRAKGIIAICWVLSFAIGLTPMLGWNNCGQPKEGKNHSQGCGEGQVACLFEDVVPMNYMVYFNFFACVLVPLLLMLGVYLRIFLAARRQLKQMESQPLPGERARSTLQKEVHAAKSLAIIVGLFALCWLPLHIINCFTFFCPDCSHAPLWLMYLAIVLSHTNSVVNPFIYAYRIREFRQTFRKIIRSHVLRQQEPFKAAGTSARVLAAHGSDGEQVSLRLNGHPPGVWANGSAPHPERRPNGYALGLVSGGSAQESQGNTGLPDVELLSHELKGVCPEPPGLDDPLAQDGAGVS
# Sequence of norepinephrine transporter (h) (P23975 whole entry): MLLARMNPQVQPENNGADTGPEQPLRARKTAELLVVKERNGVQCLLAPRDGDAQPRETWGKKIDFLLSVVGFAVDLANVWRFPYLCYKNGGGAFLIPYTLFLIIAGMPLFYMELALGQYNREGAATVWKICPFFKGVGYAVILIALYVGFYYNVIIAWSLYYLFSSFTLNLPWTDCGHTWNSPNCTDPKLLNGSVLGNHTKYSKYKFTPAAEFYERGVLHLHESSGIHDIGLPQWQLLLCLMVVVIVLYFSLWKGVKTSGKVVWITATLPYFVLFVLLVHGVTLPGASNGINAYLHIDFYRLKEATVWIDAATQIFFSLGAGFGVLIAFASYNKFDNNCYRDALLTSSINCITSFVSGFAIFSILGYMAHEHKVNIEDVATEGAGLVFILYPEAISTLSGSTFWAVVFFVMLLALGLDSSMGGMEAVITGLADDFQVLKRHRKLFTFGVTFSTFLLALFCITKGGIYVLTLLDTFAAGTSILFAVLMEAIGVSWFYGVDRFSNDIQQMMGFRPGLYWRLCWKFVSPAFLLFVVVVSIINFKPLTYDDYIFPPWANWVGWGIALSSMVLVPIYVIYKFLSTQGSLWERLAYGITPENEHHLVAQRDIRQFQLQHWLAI
# Sequence of 5-HT1B (P28564 whole entry): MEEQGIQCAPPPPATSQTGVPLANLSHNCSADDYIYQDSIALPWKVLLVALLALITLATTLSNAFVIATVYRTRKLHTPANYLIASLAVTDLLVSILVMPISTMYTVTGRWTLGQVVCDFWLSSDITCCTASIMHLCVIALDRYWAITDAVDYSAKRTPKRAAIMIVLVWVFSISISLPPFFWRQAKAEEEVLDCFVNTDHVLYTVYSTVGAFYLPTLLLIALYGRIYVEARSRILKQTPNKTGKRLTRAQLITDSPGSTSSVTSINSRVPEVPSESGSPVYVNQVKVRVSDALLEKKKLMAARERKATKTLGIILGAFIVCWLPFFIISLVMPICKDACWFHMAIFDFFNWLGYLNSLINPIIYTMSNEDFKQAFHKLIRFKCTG
smiles,measurement,setting,value
"Cc1ccccc1C(=O)Nc1nc(NC(=O)c2ccccc2C)n(-c2ccc(OC(F)(F)F)cc2)n1 [Compound 42, N,N′-(1-(4-(trifluoromethoxy)phenyl)-1H-1,2,4-triazole-3,5-diyl)bis(2-methylbenzamide)]",% Inhib NMDA,NMDA,8%
same,inhibition at 10 µM,beta 1 (h),< 1%
same,inhibition at 10 µM,mu (MOP) (h),6%
same,inhibition at 10 µM,alpha 2A (h),< 1%
same,inhibition at 10 µM,Lck kinase (h),8%
same,inhibition at 10 µM,acetylcholinesterase (h),1%
same,inhibition at 10 µM,beta 2(h),9%
same,inhibition at 10 µM,M3 (h),< 1%
same,inhibition at 10 µM,D1 (h),< 1%
same,% Inhib KV channel,KV channel,1%
same,inhibition at 10 µM,5-HT1B,1%
same,inhibition at 10 µM,M2 (h),< 1%
same,inhibition at 10 µM,5-HT3 (h),< 1%
same,inhibition at 10 µM,kappa (KOP),3%
same,inhibition at 10 µM,5-HT transporter (h),10%
same,inhibition at 10 µM,5-HT2B (h),< 1%
same,inhibition at 10 µM,[1],< 1%
same,inhibition at 10 µM,V1a (h),5%
same,inhibition at 10 µM,ETA (h),< 1%
same,inhibition at 10 µM,5-HT1A (h),10%
same,inhibition at 10 µM,CB2 (h),< 1%
same,inhibition at 10 µM,dopamine transporter (h),13%
same,inhibition at 10 µM,M1 (h),4%
same,inhibition at 10 µM,CCK1 (CCKA) (h),< 1%
same,inhibition at 10 µM,H1 (h),< 1%
same,"% Inhib Ca2+ channel (L, dihydropyridine)",[2],45%
same,inhibition at 10 µM,[3],1%
same,inhibition at 10 µM,hERG potassium channel,1%
same,inhibition at 10 µM,5-HT2A (h),4%
same,inhibition at 10 µM,PDE3A (h),13%
same,inhibition at 10 µM,A2A(h),7%
same,inhibition at 10 µM,PDE4D2 (h),35%
same,inhibition at 10 µM,MAO-A,4%
same,inhibition at 10 µM,COX1(h),19%
same,inhibition at 10 µM,MAPK3 (ERK1),1%
